Activity calls are given as the source filed them. No cut-off for these calls is given here.
Tests used:
[1] = tested on: Right cardiac atrium; assay: Effect on spontaneous contractile tension in WKY rat right atria at 30 uM relative to control
[2] = tested on: Right cardiac atrium; assay: Effect on spontaneous contractile tension in WKY rat right atria at 10 uM relative to control
[3] = tested on: Left cardiac atrium; assay: Effect on 2 Hz electrically driven contractile tension in WKY rat left atria at 30 uM relative to control; format: functional
[4] = Effect on 2 Hz electrically driven contractile tension in WKY rat right ventricle at 3 uM relative to control; format: functional, Heart right ventricle
[5] = tested on: Left cardiac atrium; assay: Effect on 2 Hz electrically driven contractile tension in WKY rat left atria at 1 uM relative to control; format: functional
[6] = tested on: Heart; assay: Effect on spontaneously beating heart rate in WKY rat right atria at 30 uM relative to control
[7] = tested on: Heart; assay: Effect on spontaneously beating heart rate in WKY rat right atria at 1 uM relative to control
[8] = tested on: Heart; assay: Antiarrhythmic activity against ouabain-induced arrhythmia in guinea pig left atria assessed as reversal of cardiac arrhythmia to normal rhythm at 3 uM; format: functional, tissue-based; conditions: Cavia porcellus
[9] = Effect on 2 Hz electrically driven contractile tension in WKY rat right ventricle at 1 uM relative to control; format: functional, Heart right ventricle
[10] = Effect on 2 Hz electrically driven contractile tension in WKY rat right ventricle at 10 uM relative to control; format: functional, Heart right ventricle
[11] = tested on: Right cardiac atrium; assay: Effect on spontaneous contractile tension in WKY rat right atria at 3 uM relative to control
[12] = tested on: Left cardiac atrium; assay: Effect on 2 Hz electrically driven contractile tension in WKY rat left atria at 3 uM relative to control; format: functional
[13] = tested on: Heart; assay: Effect on spontaneously beating heart rate in WKY rat right atria at 10 uM relative to control
[14] = Effect on 2 Hz electrically driven contractile tension in WKY rat right ventricle at 30 uM relative to control; format: functional, Heart right ventricle
[15] = tested on: Right cardiac atrium; assay: Effect on spontaneous contractile tension in WKY rat right atria at 1 uM relative to control
[16] = tested on: Heart; assay: Antiarrhythmic activity against ouabain-induced arrhythmia in guinea pig right ventricle assessed as reversal of cardiac arrhythmia to normal rhythm at 1 uM; format: functional, tissue-based; conditions: Cavia porcellus
[17] = tested on: Left cardiac atrium; assay: Effect on 2 Hz electrically driven contractile tension in WKY rat left atria at 10 uM relative to control; format: functional
[18] = tested on: Heart; assay: Effect on spontaneously beating heart rate in WKY rat right atria at 3 uM relative to control
[19] = Effect on 2 Hz electrically driven contractile tension in WKY rat right ventricle at 0.3 uM relative to control; format: functional, Heart right ventricle
[20] = tested on: Heart; assay: Antiarrhythmic activity against ouabain-induced arrhythmia in guinea pig right ventricle assessed as reversal of cardiac arrhythmia to normal rhythm at 10 uM; format: functional, tissue-based; conditions: Cavia porcellus
[21] = tested on: Right cardiac atrium; assay: Effect on spontaneous contractile tension in WKY rat right atria at 0.3 uM relative to control
[22] = tested on: Left cardiac atrium; assay: Effect on 2 Hz electrically driven contractile tension in WKY rat left atria at 0.3 uM relative to control; format: functional
[23] = tested on: Heart; assay: Antiarrhythmic activity against ouabain-induced arrhythmia in guinea pig right atria assessed as reversal of cardiac arrhythmia to normal rhythm at 10 uM; format: functional, tissue-based; conditions: Cavia porcellus
[24] = tested on: Heart; assay: Effect on spontaneously beating heart rate in WKY rat right atria at 0.3 uM relative to control
[25] = tested on: Heart; assay: Antiarrhythmic activity against ouabain-induced arrhythmia in guinea pig right ventricle assessed as reversal of cardiac arrhythmia to normal rhythm at 3 uM; format: functional, tissue-based; conditions: Cavia porcellus
[26] = tested on: Heart; assay: Antiarrhythmic activity against ouabain-induced arrhythmia in guinea pig left atria assessed as reversal of cardiac arrhythmia to normal rhythm at 1 uM; format: functional, tissue-based; conditions: Cavia porcellus
[27] = tested on: Heart; assay: Antiarrhythmic activity against ouabain-induced arrhythmia in guinea pig right atria assessed as reversal of cardiac arrhythmia to normal rhythm at 1 uM; format: functional, tissue-based; conditions: Cavia porcellus
[28] = tested on: Heart; assay: Antiarrhythmic activity against ouabain-induced arrhythmia in guinea pig right atria assessed as reversal of cardiac arrhythmia to normal rhythm at 3 uM; format: functional, tissue-based; conditions: Cavia porcellus
[29] = tested on: Heart; assay: Antiarrhythmic activity against ouabain-induced arrhythmia in guinea pig right ventricle assessed as reversal of cardiac arrhythmia to normal rhythm at 30 uM; format: functional, tissue-based; conditions: Cavia porcellus
[30] = tested on: Heart; assay: Antiarrhythmic activity against ouabain-induced arrhythmia in guinea pig right atria assessed as reversal of cardiac arrhythmia to normal rhythm at 30 uM; format: functional, tissue-based; conditions: Cavia porcellus

| Compound | Activity [1] [%] | Activity [2] [%] | Activity [3] [%] | Activity [4] [%] | Activity [5] [%] | Activity [6] [%] | Activity [7] [%] | Activity [8] | Activity [9] [%] | Activity [10] [%] | Activity [11] [%] | Activity [12] [%] | Activity [13] [%] | Activity [14] [%] | Activity [15] [%] | Activity [16] | Activity [17] [%] | Activity [18] [%] | Activity [19] [%] | Activity [24] [%] | further results |
| --- | --- | --- | --- | --- | --- | --- | --- | --- | --- | --- | --- | --- | --- | --- | --- | --- | --- | --- | --- | --- | --- |
| CO[C@H](c1ccc(O)c(O)c1)[C@H](CC#Cc1ccc(O)c(O)c1)O[C@@H]1O[C@H](CO)[C@@H](O)[C@H](O)[C@H]1O | 101.7 | 100.3 | 89.7 | 106.3 | 103 | 103 | 100 | inactive | 106.7 | 104.3 | 99 | 101.3 | 103 | 99.3 | 99 | inactive | 102.3 | 103 | – | – | – |
| CCCCO[C@@H](c1ccc(O)c(O)c1)[C@H](CC#Cc1ccc(O)c(O)c1)O[C@@H]1O[C@H](CO)[C@@H](O)[C@H](O)[C@H]1O | 86.4 | 87.8 | 103.8 | 100.4 | 95.3 | 97.4 | 99 | – | 100 | 96.8 | 91.6 | 101.1 | 98.4 | 92.2 | 94.3 | inactive | 105 | 98.4 | 102 | 100 | Activity [20]: inactive; Activity [21]: 95.5%; Activity [22]: 98.8%; Activity [23]: inactive; Activity [25]: inactive |
| OC[C@H]1O[C@@H](O[C@@H](CC#Cc2ccc(O)c(O)c2)[C@H](O)c2ccc(O)c(O)c2)[C@H](O)[C@@H](O)[C@@H]1O [NYASICOSIDE] | 78 | 83.3 | 98 | 83.6 | 105.8 | 98.5 | 98.8 | Active | 84.8 | 78.2 | 92 | 104.5 | 98.5 | 74.6 | 94.5 | inactive | 100.3 | 97.4 | 92.3 | 100 | Activity [21]: 96.8%; Activity [22]: 108.3%; Activity [26]: inactive; Activity [25]: inactive |
| CCCCO[C@H](c1ccc(O)c(O)c1)[C@H](CC#Cc1ccc(O)c(O)c1)O[C@@H]1O[C@H](CO)[C@@H](O)[C@H](O)[C@H]1O | 83.6 | 86.2 | 92.5 | 96.8 | 96 | 97.6 | 100 | Active | 95.8 | 95.4 | 89.6 | 91.2 | 99.8 | 88.2 | 91 | inactive | 89.4 | 99 | 99 | 100 | Activity [21]: 94%; Activity [22]: 98.8% |
| OC[C@H]1O[C@@H](O[C@@H](CC#Cc2ccc(O)cc2)[C@H](O)c2ccc(O)c(O)c2)[C@H](O)[C@@H](O)[C@@H]1O | 94.8 | 94.5 | 116.3 | 99.2 | 106.8 | 98.5 | 97.5 | – | 98.4 | 95.2 | 98.3 | 111.5 | 98.5 | 94.2 | 97.5 | inactive | 119.3 | 97.5 | – | 100 | Activity [20]: inactive; Activity [27]: inactive; Activity [28]: inactive; Activity [23]: inactive; Activity [29]: inactive; Activity [25]: inactive; Activity [30]: inactive |

Source: ChEMBL document CHEMBL1145680, “Bioactive Norlignan Glucosides from Curculigo capitulata” (1997)
